Consider one substance from patent publication US8628770B2, “Slimming cosmetic composition containing a substance inducing the production of IL-6” (Sanofi, priority 1999, dated 2014).

For the test, the system named is mature adipocytes 3T3-L1. Kind of test: Production of IL-6 by the mature adipocytes 3T3-L1 (ELISA). Type of test: cell-based, murine. The note with it: reference IL-6 inducer at 50 ng/ml. The text has this: The biological effects of substance C in vitro has been studied on the murine line 3T3-L1. This preadipocyte line, routinely cultured in DMEM medium ([…]) enriched with 10% foetal calf serum has the property of differentiating into mature adipocytes in the presence of inducers such as insulin and indomethacin (Slieker L. J. Biochem. Biophys. Res. Com. 1998, 251, 225-229). […] This passage from the stage of immature cell to the stage of functional adipocyte can be morphologically assessed by the appearance of intracytoplasmic lipid storage vesicles which are visible under the microscope or which can be biochemically detected by measuring the production of leptin, the hormone for satiety produced solely by mature adipocytes.
The influence of substance C on the adipocyte activity was evaluated at two levels. […]
Mature adipocytes 3T3-L1 (harvested after 10 days of differentiation induced by the insulin (5 μg/ml) and indomethacin (125 μm) combination) are stimulated with substance C at 1% (v/v) for 24 hours. The culture supernatant is then removed and its IL-6 content measured by ELISA (Enzyme Linked Immunosorbent Assay) according to the supplier's instructions (R&D Systems, Abingdon, GB). […]
In general terms: An ELISA detects its analyte on a solid surface through an enzyme-linked reagent.

Take TNF-α: the “IL-6 content of culture supernatant” value was determined as 52 pg/mL.
